{
  "source": "patent US20230158034A1",
  "about": "“CO-TREATMENT WITH CDK4/6 AND CDK2 INHIBITORS TO SUPPRESS TUMOR ADAPTATION TO CDK2 INHIBITORS” (Pfizer Inc., priority 2020, published 2023)",
  "system": "phosphorylated peptides containing a minimal CDK consensus motif (SP or TP) in MCF7 cells",
  "assay": "Phospho-proteomics (mass spectrometry) of CDK substrate phosphorylation after PF3600",
  "type": "cell-based, Homo sapiens",
  "procedure": "CDK2 substrate dynamics were globally assessed through phospho-proteomics.\nPhospho-peptide enrichment was performed as previously described (Lapek et al., 2017b). Lyophilized phospho-peptides were then TMT-labeled and fractionated by reverse phase basic pH fractionation and fractions combined as previously described (Edwards and Haas, 2016). Fractions were lyophilized and stored at […] until MS analysis. For LC-MS2/MS3 analysis, samples were reconstituted in 10 μL of 5% acetonitrile in 5% formic acid and 8 μL of each fraction was injected on the Orbitrap Fusion Lumos for analysis.\nPeptides were eluted on a 165-minute gradient of 7-32% solvent B (80% acetonitrile in 0.1% formic acid) at 300 nL/min on a PepMap RSLC C18 column (2 μm, 100 Å, 75 μm×50 cm) heated to 60° C. Spectra were acquired in Top Speed mode, with a 5 second cycle. MS1 data were collected in the Orbitrap at 60000 resolution across a range of 500-1500 m/z. An automatic gain control (AGC) target of 2×10^5 was used with a maximum injection time of 100 ms. MS2 data were acquired in the ion trap with a rapid scan rate, maximum injection time of 70 ms, and an AGC target of 2×10^4. The quadrupole was used for isolation, with an isolation window of 0.5 m/z. […]\nData were normalized in a multistep process as previously described (Lapek et al., 2017a). […] All phospho data was processed and analyzed at the peptide level.",
  "data": [
    {"smiles": "C[C@@]1(O)CCC[C@H]1n1c(=O)c(C(F)F)cc2cnc(NC3CCN(S(C)(=O)=O)CC3)nc21", "note": "[PF3600, 6-(difluoromethyl)-8-[(1R,2R)-2-hydroxy-2-methylcyclopentyl]-2-{[1-(methylsulfonyl)-piperidin-4-yl]amino}pyrido[2,3-d]pyrimidin-7(8H)-one]", "values": [
      {"measurement": "number of SP/TP peptides whose phosphorylation was significantly reduced (p<0.05)", "setting": "25 nM PF3600, 1 hr", "result": 40, "unit": "peptides"},
      {"measurement": "fate of the reduced phosphopeptides at 24 hr", "setting": "25 nM PF3600, 24 hr", "result": "vast majority of these rebounded to control levels"}
    ]}
  ]
}
